Data on three compounds can be found in US9717714B2, “Spirocyclic CETP inhibitors” (Merck Sharp & Dohme Corp., priority 2012, dated 2017).

For assay [1] the following is noted: patients on baseline statin therapy, compared with just a statin; cited from earlier work.
Assay [2] deals with CETP (Homo sapiens (Human), UniProt P11597). Put plainly: Scintillation Proximity Assay (SPA) for CETP activity. The format is biochemical. The settings on record: 15 nM CETP. Here is the method:
Protocol: Scintillation Proximity Assay (SPA) for CETP Activity
First, low density lipoprotein (LDL) (Meridian) was biotinylated by incubating LDL with biotin for 1 hour on ice, after which it was dialyzed to remove free biotin. Then compounds at varying concentrations were incubated with 15 nM CETP (reagent production group, In Vitro Pharmacology, MRL Rahway) and 50 ug/ml of the biotinylated LDL in 50 mM HEPES, 150 mM NaCl, pH 7.4, for 1 hour at 37° C. The reaction was started by adding ^3H-cholesterol ester high density lipoprotein (HDL) (American Radiochemicals Corp) at a concentration of ˜0.6 nM. The reaction proceeded for 2 hours at 37° C., after which time it was quenched by the addition of 12% acetic acid. PVT streptavadin-coated scintillation proximity beads, which had been brought to room temperature, were then added at a concentration of 4 mg/ml. The assay was then mixed and counted after one half hour in a Microbeta plate reader.
On the technique in general: SPA uses beads or plates that emit light when radiolabelled molecules are held near them.

For assay [3], the target named is endogenous CETP from serum (Homo sapiens (Human), UniProt P11597). Put plainly: RTA assay in 95% human serum (CETP-catalyzed CE and TG transfer, endogenous CETP). In kind it is biochemical. Conditions: generally RTA assay in 95% human serum; read-out: IC50. The source says:
In Vitro Radioactive Assays of CETP-Catalyzed CE and TG Transfer (RTA Assay)
Reagents and sources are: [3H] cholesteryl oleate (GE #TRK.886), [3H] Triolein (Perkin-Elmer NET-431), Butylated hydroxyl toluene (Aldrich, #D4740-4), DOPC (Sigma, #P6354), Sodium Bromide (Fisher scientific #S255-500), PEG 8000 (Fisher, #BP233-1), and human HDL (Intracel Corp #RP-036).
Both assays measure the transfer of [3H] cholesteryl oleate or [3H] triolein from exogenous LDL to HDL.
Radiolabeled donor particles are generated by first combining 100 μl of 200 μM butylated hydroxyl toluene in CHCl3, 216 μL of 21.57 mM DOPC in EtOH, and either 500 μCi [3H]-triolein (Perkin Elmer #NET-431) or 500 μCi [3H]-cholesteryl oleate (GE #TRK886) in a glass tube. Reagents are mixed, dried under nitrogen, and then resuspended in 2 mL of 50 mM Tris, 27 μM EDTA at pH 7.4. After a brief vortex, the solution is sonicated until clear and mixed with 20 mL of fresh human serum. The mixture is incubated overnight at 37° C. The [3H] labeled LDL substrate is separated at 1.063 g/ml density by sequential ultracentrifugal flotation in NaBr according to the method of Havel, Eder, et al., 1955, and Chapman, Goldstein, et al., 1981. Once isolated the particles are dialyzed 3× in CETP buffer (50 mM Tris, pH 7.4, 100 mM NaCl, 1 mM EDTA). Human HDL is purchased from Intracel and used as the acceptor particles.
Transfer assays are performed in a 96-well v-bottom polypropylene plate. For the RTA using recombinant CETP (2% RTA), an assay cocktail is prepared with the final concentrations 128 μg/mL HDL, 20 nM rCETP, 2% human serum, and 1×CETP buffer. 1 μL of each test compound diluted in DMSO is added to 47 μL of assay cocktail per well and incubated at 37° C. for 1 hour. To initiate the transfer reaction, 2 μL radiolabeled LDL is added. After an additional 60 min of incubation at 37° C., the transfer action is terminated by precipitation of LDL with an equal volume of 20% W/V PEG 8000. The plates are centrifuged at 2000 rpm for 30 minutes at 4° C. A 40 μL aliquot of the HDL-containing supernatant is transferred to a Packard Optiplate™ with 200 μL of MicroScint™ 20. After mixing, plates are counted by liquid scintillation. Counts present in the supernatant for blanks (wells containing only HDL acceptor, CETP buffer and DMSO) are subtracted from those containing test compounds and used to correct for non-specific transfer.
For the transfer assay using endogenous CETP from serum (95% RTA), the same procedure is used except that human serum is added such that a final concentration of serum of 95% of the total assay volume is achieved, yielding a concentration of approximately 15 nM endogenous CETP in the assay. This is then combined with HDL and CETP buffer and the reaction proceeds as above and is terminated as described.
Comparison of the counts of samples with inhibitors to an uninhibited (DMSO only) positive control yield a percent inhibition. A plot of percent inhibition vs. log of inhibitor concentration, fit to a Sigmoidal 4 parameter equation is used to calculate IC50.
Starting materials are commercially available or are made using known procedures or as shown below. The examples may be synthesized according to the general schemes provided below and through the synthetic intermediates that are described. […] When compounds of Formula I or Formula II are mentioned herein, such compounds include compounds defined generically by Formula I or II and also the specific examples disclosed herein.

Sequence of CETP (P11597 18-493): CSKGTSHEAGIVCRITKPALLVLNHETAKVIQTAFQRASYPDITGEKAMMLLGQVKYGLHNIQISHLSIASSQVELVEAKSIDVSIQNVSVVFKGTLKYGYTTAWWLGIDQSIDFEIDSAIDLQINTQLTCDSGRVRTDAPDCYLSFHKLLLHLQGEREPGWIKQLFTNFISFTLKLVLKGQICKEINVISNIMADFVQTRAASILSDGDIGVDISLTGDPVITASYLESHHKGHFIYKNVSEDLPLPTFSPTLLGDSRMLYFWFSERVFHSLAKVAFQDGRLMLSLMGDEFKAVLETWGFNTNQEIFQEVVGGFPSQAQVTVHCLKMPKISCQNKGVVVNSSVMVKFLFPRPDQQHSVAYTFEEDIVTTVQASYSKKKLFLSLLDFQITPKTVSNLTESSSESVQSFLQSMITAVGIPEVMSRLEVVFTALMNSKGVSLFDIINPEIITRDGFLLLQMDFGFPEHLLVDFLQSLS
Sequence of endogenous CETP from serum (P11597 18-493 limits assumed): as the sequence (P11597 18-493) above

For the compound `COc1cc(F)c(C(C)C)cc1-c1ccc(C(F)(F)F)cc1CN1C(=O)O[C@H](c2cc(C(F)(F)F)cc(C(F)(F)F)c2)[C@@H]1C` [anacetrapib], in assay [1], the “decrease of LDL-C” value is on record as 40% and the “increase of HDL-C” value was 138%.

By IC50 is commonly meant the concentration that inhibits the measured activity by half. For `COc1ccc(-c2ccc(C(=O)O)cc2C)cc1-c1cnc(N(C)C)nc1CN1C(=O)O[C@@H](c2cc(C(F)(F)F)cc(C(F)(F)F)c2)C12CC2` [Example 8, 3′-[4-({(7S)-7-[3,5-bis(trifluoromethyl)phenyl]-5-oxo-6-oxa-4-azaspiro[2.4]hept-4-yl}methyl)-2-(dimethylamino)pyrimidin-5-yl]-4′-methoxy-2-methylbiphenyl-4-carboxylic acid], the IC50 in assay [2] was 6.3 µM.

Turning to `COc1cc(F)c(C(C)C)cc1-c1cnc(N(C)C)nc1CN1C(=O)OC(c2cc(C(F)(F)F)cc(C(F)(F)F)c2)C12CCC2` (stereo not shown) [Example 11, 8-[3,5-bis(trifluoromethyl)phenyl]-5-({2-(dimethylamino)-5[4-fluoro-2-methoxy-5-(1-methylethyl)phenyl]pyrimidin-4-yl}methyl)-7-oxa-5-azaspiro[3.4]octan-6-one], the IC50 in assay [3] came to 318 nM.
